Earlier results in patent US8227490B2, “Use of 1-hydroxy-2-pyridones for the treatment of seborrheic dermatitis” (Medicis Pharmaceutical Corporation, priority 1996, dated 2012).

Tested on: gram-positive bacteria
Conditions: Kinsman et al., J. Med. Microbiol. (1983)

For `CC(=O)N1CCN(c2ccc(OCC3COC(Cn4ccnc4)(c4ccc(Cl)cc4Cl)O3)cc2)CC1` (stereo not shown) [ketoconazole], the “activity in vitro against gram-positive bacteria” value is listed as “inactive”.
